In the OPERA property sets (Mansouri et al. 2018):

Conditions: for log10 biotransformation half-life (days) / log10 BCF: fish

| SMILES | boiling point | melting point | other results |
| --- | --- | --- | --- |
| Cc1c(C)c(C)c(C)c(C)c1C | 263 °C | 166 °C | log10 Koa: 6.31; log10 vapour pressure (mmHg): -3.07 |
| CC1=CC[C@@H](C(C)C)CC1 | 174 °C | – | – |
| CCCNc1c([N+](=O)[O-])cc(C(F)(F)F)cc1[N+](=O)[O-] | – | – | log10 Koc (L/kg): 3.61 |
| FC(Cl)(Cl)Br | 52 °C | -106 °C | – |
| O=C(O)c1cccc(F)c1 | – | 124 °C | – |
| Clc1c(Cl)c(Cl)c(Oc2c(Cl)c(Cl)c(Cl)c(Cl)c2Cl)c(Cl)c1Cl | – | – | log10 biotransformation half-life (days): 1.8 |
| CC1CCCC(C)(C)C1 (stereo not given) | 137 °C | -65.7 °C | log10 vapour pressure (mmHg): 1.03 |
| CCC(CC)(CC)C(C)C | 172 °C | – | – |
| COCCOC(=O)c1ccccc1C(=O)OCCOC | 340 °C | -45 °C | – |
| Fc1ccc(C(c2ccc(F)cc2)C(Cl)(Cl)Cl)cc1 | – | 44.5 °C | – |
| CCCCCCCI | 204 °C | -48.2 °C | log10 Henry constant (atm·m³/mol): -1.41; log10 vapour pressure (mmHg): -0.351 |
| ClC(Cl)=C(Cl)C(Cl)Cl | 185 °C | – | – |
| CCCCCCOc1ccccc1C(N)=O | – | 71 °C | – |
| C#CCCCCCCCCCCCCC | 268 °C | 10 °C | – |
| O=C(CS)Nc1ccc2ccccc2c1 | – | 112 °C | – |
| CC(C)CC(C)(C#N)N=NC(C)(C#N)CC(C)C (stereo not given) | – | – | ready biodegradability: not readily biodegradable |
| BrC1CCCC1 | 138 °C | – | – |
| O=C(O)/C=C/C=C/C(=O)O | – | 301 °C | – |
| C[C@H]1C[C@H]2[C@@H]3CCC4=CC(=O)C=C[C@]4(C)[C@@]3(F)[C@@H](O)C[C@]2(C)[C@@]1(O)C(=O)CCl | – | 196 °C | – |
| CC(C)(O)C(=O)O | 212 °C | 82.5 °C | log10 vapour pressure (mmHg): -2.06 |
| FC(F)CC(F)(F)F | 40 °C | -102 °C | log10 vapour pressure (mmHg): 3.05 |

| SMILES | boiling point | melting point | other results |
| --- | --- | --- | --- |
| Clc1cc(Cl)c(Oc2cc(Cl)c(Cl)c(Cl)c2Cl)cc1Cl | – | – | log10 biotransformation half-life (days): 1.97 |
| CCNc1ccc(C)cc1 | 217 °C | – | ready biodegradability: not readily biodegradable; log10 BCF: 0.61 |
| ClCC(Cl)(Cl)C(Cl)(Cl)Cl | 216 °C | 26 °C | – |
| CCCCCCCCCCCCC1=C(OC(C)=O)C(=O)c2ccccc2C1=O | – | 59.6 °C | – |
| S=C1SCN(Cc2ccccc2)CN1Cc1ccccc1 | – | 102 °C | – |
| CC(=O)NCCSC(C)=O | – | 32.5 °C | – |
| NS(=O)(=O)c1ccccc1 | – | 151 °C | ready biodegradability: not readily biodegradable; log10 BCF: 0.68; log10 biotransformation half-life (days): -0.71 |
| C=C(C)c1ccc(C(C)(C)N=C=O)cc1 | – | – | log10 vapour pressure (mmHg): -2.33 |
| CCCCC(Cl)CC (stereo not given) | 144 °C | – | – |
| Cc1c(Cl)ccc(O)c1Cl | 236 °C | 58 °C | – |
| O=[N+]([O-])c1c(O)ccc2ccccc12 | – | 104 °C | – |
| NN1CCOCC1 | 166 °C | – | – |
| Nc1cc(N2CCCCC2)nc(N)[n+]1[O-] | – | 248 °C | – |
| O=C(O)CCCCCCC[C@H](O)[C@H](O)CCCCCCO | – | 100 °C | – |
| COc1ccc(C(=O)c2cccc(C)c2)cc1C | – | 62.3 °C | – |
| CCC1NC(=O)c2cc(S(N)(=O)=O)c(Cl)cc2N1 (stereo not given) | – | 251 °C | – |
| CN(C)C(=S)Sc1ccc([N+](=O)[O-])cc1[N+](=O)[O-] | – | 152 °C | – |
| CC1C=CCC2C(=O)OC(=O)C12 (stereo not given) | – | – | ready biodegradability: not readily biodegradable |
| CCCCCCCCOc1ccccc1 | 285 °C | 8 °C | – |
| ClC1C(Cl)C(Cl)C(Cl)C(Cl)C1Cl (stereo not given) | – | – | log10 biotransformation half-life (days): 1.49 |
| Cc1cccc(N=Nc2ccc(N(C)C)cc2)c1 | – | 138 °C | – |

| SMILES | boiling point | melting point | other results |
| --- | --- | --- | --- |
| CCOc1ccc([N+](=O)[O-])cc1 | 283 °C | 60 °C | – |
| O=C(O)CO | – | 79.5 °C | log10 vapour pressure (mmHg): -1.7; ready biodegradability: readily biodegradable |
| C=C(C)C(=O)OCC(CC)(COC(=O)C(=C)C)COC(=O)C(=C)C | – | – | ready biodegradability: readily biodegradable |
| CCCCOc1ccc(C(=O)OCCN(CC)CC)cc1 | – | 146 °C | – |
| CNC(=O)N(C)C | 232 °C | 75.5 °C | – |
| Cc1ccc2sc(C)nc2c1 | – | 38 °C | – |
| CCC(Br)CC | 119 °C | -126 °C | – |
| CC(C)(C#N)C#N | 170 °C | 31.5 °C | log10 vapour pressure (mmHg): 0.16 |
| FCCCCCl | 115 °C | – | – |
| O=C(O)c1ccnc(C(=O)O)c1 | – | 249 °C | ready biodegradability: readily biodegradable |
| CC(=O)c1ccc2ccccc2c1 | 302 °C | 56 °C | log10 Koc (L/kg): 2.93; log10 vapour pressure (mmHg): -3.21 |
| O=C1Cc2cccc3cccc1c23 | – | 121 °C | – |
| CCC(=O)O[C@H]([C@H](C)[C@H]1O[C@@]2(CC[C@@](C)([C@H]3CC[C@@](C)(C4O[C@@H]([C@H]5O[C@@](O)(CO)[C@H](C)C[C@@H]5C)C[C@@H]4C)O3)O2)C[C@H](O)[C@H]1C)[C@@H](C)C(=O)O (stereo not given in full) | – | 152 °C | – |
| CCCCOC(=O)CC(C)=O | – | -35.6 °C | ready biodegradability: readily biodegradable |
| CCCC(=O)OCC(C)C | 157 °C | – | – |
| CC(=O)c1cccc(O)c1 | 296 °C | 96 °C | – |
| CCCCCCOCCO | 208 °C | -45.1 °C | log10 vapour pressure (mmHg): -0.81 |
| O=C(O)CCCCCBr | – | 35 °C | – |
| Clc1cc2c(oc3c(Cl)cccc32)c(Cl)c1Cl | – | 190 °C | log10 vapour pressure (mmHg): -7.4 |
